In one assay the test system is arrested IMR90 cells. The experiment in a line: Arrested cell assay, arrested IMR90 normal cells. The assay is classed as cell-based. As to conditions: Homo sapiens, IMR-90. The procedure: (§1) Cyclin-dependent kinase (Cdk) activity is required to promote the progression of cells through distinct phases of the cell division cycle. The proliferation of normal, non-transformed, cells in culture requires the presence of growth factors, the removal of which, through serum deprivation, leads to a loss of Cdk activity and consequent exit from the cell cycle as cells enter the quiescent phase, G0.
IMR90 cells were plated in triplicate for each compound concentration to be tested in MEM-A media containing 10% fetal calf serum at a density of either 2,000 or 20,000 cells per well in 24-well dishes and incubated overnight at 37° C., 5% CO2. The media was removed from the 20,000 cell-per-well dish, cells were washed once with serum-free media, and serum-free media was placed on cells. The plates containing cells both in the presence and absence of serum were incubated for 3 additional days.
(§2) The cells are incubated in the presence of the compounds for 72 hours (3 days) at 37° C. […] Cycling and arrested HCT-116 cells as well as cycling IMR90 cells were exposed to a panel of 6 doses ranging from 5 to 250 nM. For arrested normal cells, the range of doses was increased to 50 nM to 25 μM, to compensate for the expected decrease in activity.
(§3) The effect of 72 hours of compound exposure on cellular viability was assessed in the Calcein AM assay. Calcein AM is a fluorescent substrate of intracellular esterases that are only active in viable cells. Cleavage of the substrate thus provides a measure of viability, which is proportional to cell number.
(§4) A Calcein AM stock solution was prepared by dissolving a 50 μg aliquot (Molecular Probes catalogue # C3100) in 50 μl DMSO. The tube was incubated at room temperature for approximately 10 minutes to ensure that the Calcein had dissolved completely. The calcein was diluted into 10 ml PBS to prepare the final solution, which was protected from light.
(§5) The media was aspirated off the cells, which were then washed twice with 1 ml PBS to remove the PBS completely from cells by aspiration. 0.5 ml of the Calcein/PBS solution was transferred by pipette into each well. The plates were incubated at 37° C. for 75 minutes (protected from light) and read on a fluorescent plate reader (excitation 485/20 and emission 530/25).

Assay [1] has as its system NCI panel of 60 cell lines. The experiment in a line: NCI panel of human tumor cell lines (SRB), Mean-Graph Mid-point. The assay is classed as cell-based. An excerpt:
The evaluation of compounds at the National Cancer Institute in their panel of 60 cell lines provides a wealth of information regarding efficacy in a wide range of tumor types and genetic backgrounds. Included within this panel are cell lines derived from leukemia, melanoma and cancers of the lung, colon, brain, ovary, breast, prostate and kidney. Use of this panel provides a measure of the efficacy of compounds in cells with alterations in many genes that are associated with neoplastic transformation including p53 and Her2/Neu as well as those involved in metabolism and those which confer multi-drug resistance. The data generated in these cell lines with the protocol described below can be used to evaluate the activity of compounds.
Cells were grown in RPMI-1640 10% FCS and plated in 96 well micro-titer plates at densities ranging from 5,000 to 40,000 cells/well. The plates were incubated for 24 hours at 37° C., 5% CO2 for 24 hours. Media containing twice the desired final concentration of the compound (5 doses spanning 4 logs) was prepared and 100 μl was added to each well containing 100 μl media plus cells to yield the desired final concentration. The plates were then incubated for an additional 48 hours.
The effect of the compound on cellular viability was determined with the Sulforhodamine B (SRB) assay, which measures total protein. Cells were fixed with cold TCA to a final concentration of 10% and incubated at 4° C. for 60 minutes. The supernatant was discarded and the plates were washed five times with water and air-dried. SRB solution at […] in 1% acetic acid was added to each well and the plates were incubated for 10 minutes at room temperature. The plates were washed five times with 1% acetic acid and air-dried. The bound stain was solubilized with 10 mM trizma base and the absorbance was read on a plate reader at […].

A further assay deals with HCT-116 cells. The experiment in a line: Cell cycle analysis with propidium iodide (PI FACS). The assay is classed as cell-based, human. The following applies: HCT-116, 24, 48 and 72 hours. The protocol:
The percentage of cells in the G1, S and G2/M phases of the cell cycle was determined by staining DNA with propidium iodide and quantifying the number of cells with a 2N or 4N DNA complement by flow cytometry. Alterations in the distribution of cells across the cell cycle in response to exposure to the Cdk inhibitors was evaluated in this marmer.
3 sets of HCT-116 cells (100,000 cells/set) were cultured in the presence of a test compound in T-25 flasks according to Table 1 below. Analysis was performed at 24, 48 and 72 hours. Adherent cells were collected by trypsinization, combined with floating cells in Falcon 12×75 flow cytometric tubes, and harvested by centrifugation. The media was decanted from the cell pellet, 100 μl of PI stain was added and the cells were incubated at 37° C. for 20-25 minutes. The cell count was preferably no greater than 2×10^6-4×10^6/ml. An equal volume (100 μl) of PI salt was then added to the cells, which were then incubated at 4° C. for 1-2 hours. The stained cells were analyzed on a Becton Dickinson FACScan flow cytometer. Samples were protected from light.

In a further assay the test system is arrested HCT-116 cells. The experiment in a line: Arrested cell assay, arrested HCT-116 tumor cells. Format: cell-based. The following applies: Homo sapiens. The procedure:
as §1
HCT-116 cells were plated in triplicate for each compound concentration to be tested in RPMI 1640 media containing 10% fetal calf serum at a density of either 200 or 2,000 cells per well in 24 well dishes, and incubated overnight at 37° C., 5% CO2. The media from the plate containing 2,000 cells per well was removed, cells were washed once with serum free media and 1 ml of serum free media was placed on cells. The plates containing cells both in the presence and absence of serum were incubated for 6 additional days.
as §2, §3, §4, §5

Setting [2] is: read-out: IC50 for arrested IMR90 cells.
Setting [3] is: NCI assay, read-out: Mean-Graph Mid-point.
Setting [4] is: read-out: IC50 for arrested HCT-116 cells.

The structures appear in SMILES notation. Where two headings read alike, the source gives them in different places. Some results are limits rather than exact numbers.

For the molecule `COCCN1CCN(Cc2ccc(-c3[nH]nc4c3C(=O)c3c(NC(=O)NN5CCOCC5)cccc3-4)cc2)CC1.Cl.Cl` [Compound B16, N-[3-(4-{[4-(2-methoxyethyl)piperazinyl]methyl}phenyl)-4-oxoindeno[2,3-d]pyrazol-5-yl](morpholin-4-ylamino)carboxamide dihydrochloride], the IC50 is more than 10000 nM in the assay with arrested IMR90 cells (setting [2]), less than 50 nM in assay [1] (setting [3]) and less than 50 nM with arrested HCT-116 cells (setting [4]). For the same molecule, the “Effect on cell cycle distribution (PI staining)” value in the assay with HCT-116 cells is listed as “Analogous results”.
`CC(C)N1CCN(C(=O)COc2ccc(-c3[nH]nc4c3C(=O)c3c(NC(=O)NN5CCOCC5)cccc3-4)cc2)CC1.Cl` [Compound A37]: the IC50 in the assay with arrested IMR90 cells (setting [2]) was more than 10000 nM; in assay [1] (setting [3]), less than 50 nM; with arrested HCT-116 cells (setting [4]) it was less than 50 nM. Moreover, the “Effect on cell cycle distribution (PI staining)” value with HCT-116 cells was “cells are terminally arrested in G1 and G2, with evidence of apoptosis and endo-reduplication”.
`CC(C)c1nn(-c2c(Cl)cccc2Cl)c2nc(Cc3ccc(O)c(CN4CCN(C(C)C)CC4)c3)[nH]c(=O)c12` [Compound C]: the IC50 in the assay with arrested IMR90 cells (serum-starved arrested cells, 72 hours, read-out: Arrested cell assay IMR90 IC50) is more than 1000 nM; in assay [1] (read-out: NCI panel MG-MID (Mean-Graph Mid-point, average IC50 over the whole cell panel)), less than 100 nM; in the assay with arrested HCT-116 cells (serum-starved arrested cells, 72 hours, read-out: Arrested cell assay HCT IC50), less than 10 nM.

For the origin of these results see US7605175B2, “Inhibitors of cyclin-dependent kinases, compositions and uses related thereto” (GPC Biotech AG, priority 2001, dated 2009).
